SMILES strings stand for the structures. pIC50: −log10 of the molar value. Active and inactive are the calls of the source. No cut-off for these calls is given here.

The target in test [1] is Histamine H3 receptor (Cavia porcellus, UniProt Q9JI35). Nature of the test: Binding affinity to histamine H3 receptor in guinea pig brain membrane. Format: cell membranes.
In test [2] the target is Histamine H3 receptor (Cavia porcellus) (UniProt Q9JI35). Put plainly: Antagonist activity at guinea pig histamine H3 receptor assessed as blockade of (R)-alpha-methyl histamine-induced inhibition of EFS-stimulated guinea pig ileum contraction at 1 ug/mL. It is filed as functional, tissue-based.
Test [3] shares this target. Nature of the test: Antagonist activity at guinea pig histamine H3 receptor assessed as blockade of clonidine-induced inhibition of EFS-stimulated guinea pig ileum contraction at 1 ug/mL. Format: functional, tissue-based.

Chain of Histamine H3 receptor (Cavia porcellus) (Q9JI35 whole entry): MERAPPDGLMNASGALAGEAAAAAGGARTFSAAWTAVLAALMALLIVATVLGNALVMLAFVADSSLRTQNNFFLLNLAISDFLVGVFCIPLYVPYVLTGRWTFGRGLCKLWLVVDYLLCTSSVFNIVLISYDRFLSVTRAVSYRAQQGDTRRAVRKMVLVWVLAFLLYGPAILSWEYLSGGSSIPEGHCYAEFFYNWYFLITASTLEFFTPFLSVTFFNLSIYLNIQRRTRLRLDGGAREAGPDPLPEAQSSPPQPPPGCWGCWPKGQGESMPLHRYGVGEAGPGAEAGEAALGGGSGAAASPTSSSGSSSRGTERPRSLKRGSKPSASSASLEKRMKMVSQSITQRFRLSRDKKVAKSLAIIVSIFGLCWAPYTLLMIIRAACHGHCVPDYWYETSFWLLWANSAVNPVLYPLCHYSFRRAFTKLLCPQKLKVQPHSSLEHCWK
Chain of Histamine H3 receptor (Q9JI35 whole entry): as above

Broadly, the pIC50 is the IC50 on a negative log10 scale, so that one unit is a factor of ten. A high value points to a low IC50. `COc1ccc(C/C(=N\O)C(=O)NCCc2c[nH]cn2)cc1Br` [VERONGAMINE] showed a pIC50 in test [1] of 6.30. The outcome in test [2] was Active. Moreover, the result in test [3] was inactive.
`COC1=C(Br)C(O)C2(C=C1Br)CC(C(=O)NCCc1c[nH]cn1)=NO2` (centres undefined): the outcome in test [2] was inactive.

Values taken from ChEMBL document CHEMBL1149035, “Verongamine, a novel bromotyrosine-derived histamine H3-antagonist from the marine sponge Verongula gigantea” (J Nat Prod, 1994).
